# Test results from patent US6846825B1, “Antibacterial agents” (British Biotech Pharmaceuticals Limited, priority 1999, dated 2005).
# Like-named read-outs stand apart in the source and are kept apart here.
# What was measured:
# Type in all cases: cell-based
# [1] = system: E. coli strains DH5α; experiment: Minimal inhibitory concentration (MIC), two fold serial dilutions in 2×YT broth; conditions: 37° C., 18 hours, lowest concentration that inhibited visible growth
# Procedure: (§1) Minimal inhibitory concentrations (MIC) of compounds of the invention against E. coli strains DH5α (Genotype; F-ω80dlacZΔM15Δ(lacZYA-argF)U169 deoR recA1 endA1 hsdR17(rk^−,mk^+)phoA supE44λ^−thi-1 gyrA96 relA1) obtained from Gibco BRL Life Technologies, or Staphylococcus capitis (American Type Culture Collection number 35661) were determined as follows. Stock solutions of each test compound were prepared by dissolution of the compound in dimethylsulfoxide at 10 mM. For the determination of the minimal inhibitory concentration, two fold serial dilutions were prepared in 2×YT broth (typtone 16 g/1, yeast extract 10 g/1, sodium chloride 5 g/1 obtained from BIO 101 Inc, 1070 Joshua Way, Vista, Calif. 92083, USA) to yield 0.05 ml compound-containing medium per well. Inoculate were prepared from cultures grown overnight in 2×YT broth at 37° C. Cell densities were adjusted to absorbance at 660 nm (A660)=0.1; the optical density-standardised preparations were diluted 1:1000 in 2×YT broth; and each well inoculated with 0.05 ml of the diluted bacteria. Microtiter plates were incubated at 37° C. for 18 hours in a humidified incubator. The MIC (μM) was recorded as the lowest drug concentration that inhibited visible growth.
# [2] = system: Staphylococcus capitis (American Type Culture Collection number 35661); experiment: as above; conditions: S. capitis ATCC 35661, 2×YT broth, 37° C., 18 hours, lowest concentration that inhibited visible growth
# Procedure: as §1
# [3] = system: Haemophilus Influenza; experiment: MIC against respiratory tract pathogens, Microdilution Broth Method (NCCLS)
# Procedure: (§2) In another experiment, the MICs of the compound of Example 91 were determined against certain respiratory tract pathogens, using the Microdilution Broth Method according to the approved standard of the National Committee for Clinical Laboratory Standards procedure (Methods for dilution antimicrobial susceptibility tests for bacteria that grow aerobically—Fourth Edition ISBN 1-56238-309-4).
# [4] = system: Moraxella catarrhalis; experiment: as above
# Procedure: as §2
# [5] = system: Streptococcus pneumoniae; experiment: as above
# Procedure: as §2
# [6] = Staphylococcus capitis, ATCC35661
Compound,MIC [1] [µM],MIC [2] [µM],MIC ([1]; Escherichia coli) [µM],"MIC [2, 6] [µM]",other results
"CCCC[C@H](CN(O)C=O)C(=O)N[C@H](C(=O)N1CCN(C(=O)c2snnc2C)CC1)C(C)(C)C [Example 69, 2R-[(Formyl-hydroxy-amino)-methyl]-hexanoic acid {2,2-dimethyl-1S-[4-(4-methyl-[1,2,3]thiadiazole-5-carbonyl)-piperazine-1-carbonyl]-propyl}-amide]",200,25,–,–,–
"CC(C)(C)C(NC(=O)[C@H](CC1CCCC1)CN(O)C=O)C(=O)N1CCC(Oc2ccc(C(=O)N3CCOCC3)cc2)CC1 (stereo partly drawn) [Example 89, 2R-Cyclopentylmethyl-N-(2,2-dimethyl-1S-{4-{4-(morpholine-4-carbonyl)-phenoxy}-piperidine-1-carbonyl}-propyl)-3-(formyl-hydroxy-amino)-propionamide]",–,–,200,25,–
"CC(C)(C)[C@H](NC(=O)[C@H](CC1CCCC1)CN(O)C=O)C(=O)N1CCN(Cc2ccccc2C#N)CC1 [Example 50, N-{1S-[4-(2-Cyano-benzyl)-piperazine-1-carbonyl]-2,2-dimethyl-propyl}-2R-cyclopentylmethyl-3-(formyl-hydroxy-amino)-propionamide]",200,6.2,–,–,–
"CCCC[C@H](CN(O)C=O)C(=O)N[C@H](C(=O)N1CCN(C(=O)c2ccc3c(c2)OCO3)CC1)C(C)(C)C [Example 55, 2R-[(Formyl-hydroxy-amino)-methyl]-hexanoic acid {1S-[4-(3a,7a-dihydro-benzo[1,3]dioxole-5-carbonyl)-piperazine-1-carbonyl]-2,2-dimethyl-propyl}-amide]",–,–,200,6.2,–
"CCCC[C@H](CN(O)C=O)C(=O)N[C@H](C(=O)N1CCN(Cc2ccccc2C#N)CC1)C(C)(C)C [Example 44, 2R-[(Formyl-hydroxy-amino)-methyl]-hexanoic acid {1S-[4-(2-cyano-benzyl)-piperazine-1-carbonyl]-2,2-dimethyl-propyl}-amide]",200,12,–,–,–
"CC(C)(C)[C@H](NC(=O)[C@H](CC1CCCC1)CN(O)C=O)C(=O)N1CCN(Cc2ccc3ccccc3c2)CC1 [Example 54, 2R-Cyclopentylmethyl-N-[2,2-dimethyl-1S-(4-naphthalen-2-ylmethyl-piperazine-1-carbonyl)-propyl]-3-(formyl-hydroxy-amino)-propionamid]",200,3.1,–,–,–
"CC(C)(C)C(NC(=O)[C@H](CC1CCCC1)CN(O)C=O)C(=O)N1CCC(Oc2ccc(C(=O)N3CCC(O)CC3)cc2)CC1 (stereo partly drawn) [Example 91, 2R-Cyclopentylmethyl-3-(formyl-hydroxy-amino)-N-(1S-{4-[4-(4-hydroxy-piperidine-1-carbonyl)-phenoxy]-piperidine-1-carbonyl}-2,2-dimethyl-propyl)-propionamide]",–,–,200,25,"MIC ([3]; Haemophilus Influenza 1390): 1 µg/mL; MIC ([3]; Haemophilus Influenza 1414): 4 µg/mL; MIC ([4]; Moraxella catarrhalis 2412): 0.5 µg/mL; MIC ([4]; Moraxella catarrhalis 2413): 0.25 µg/mL; MIC ([5]; Streptococcus pneumoniae (PIP) 2391): 0.25 µg/mL; MIC ([5]; Streptococcus pneumoniae (PRP) 2390): 0.25 µg/mL; MIC ([5]; Streptococcus pneumoniae (PSP) 2403, read-out: MIC): 0.25 µg/mL"
"CCCC[C@H](CN(O)C=O)C(=O)N1CCN(CCOCCO)CC1 [Example 29, N-Hydroxy-N-(2R-{4-[2-(2-hydroxy-ethoxy)-ethyl]-piperazine-1-carbonyl}-hexyl)-formamide]",–,–,100,–,–
"CCCC[C@H](CN(O)C=O)C(=O)N1CCC(c2ccccc2)CC1 [Example 24, N-Hydroxy-N-[2R-(4-phenyl-piperidine-1-carbonyl)-hexyl]-formamide]",–,–,–,100,–
"CC(C)(C)[C@H](NC(=O)[C@H](CC1CCCC1)CN(O)C=O)C(=O)N1CCN(Cc2ccc(-c3ccccc3)cc2)CC1 [Example 52, N-[1S-(4-Biphenyl-4-ylmethyl-piperazine-1-carbonyl)-2,2-dimethyl-propyl]-2R-cyclopentylmethyl-3-(formyl-hydroxy-amino)-propionamide]",200,6.2,–,–,–
"CN(C)C(=O)c1ccc(OC2CCN(C(=O)[C@@H](NC(=O)[C@H](CC3CCCC3)CN(O)C=O)C(C)(C)C)CC2)cc1 [Example 88, 4-(1S-{2-[2R-Cyclopentylmethyl-3-(formyl-hydroxy-amino)-propionylamino]-3,3-dimethyl-butyryl}-piperidin-4-yloxy)-N,N-dimethyl-benzamide]",–,–,100,6.2,–
"CC(C)(C)[C@H](NC(=O)[C@H](CC1CCCC1)CN(O)C=O)C(=O)N1CCN(Cc2ccc3c(c2)OCO3)CC1 [Example 57, N-[1S-(4-Benzo[1,3]dioxol-5-ylmethyl-piperazine-1-carbonyl)-2,2-dimethyl-propyl]-2R-cyclopentylmethyl-3-(formyl-hydroxy-amino)-propionamide]",–,–,100,6.2,–
"CCCC[C@H](CN(O)C=O)C(=O)N[C@H](C(=O)N1CCN(C(=O)c2ccc(-c3ccccc3)cc2)CC1)C(C)(C)C [Example 79, 2R-[(Formyl-hydroxy-amino)-methyl]-hexanoic acid {1S-[4-(biphenyl-4-carbonyl)-piperazine-1-carbonyl]-2,2-dimethyl-propyl}-amide]",–,6.25,–,–,–
"CCCC[C@H](CN(O)C=O)C(=O)N[C@H](C(=O)N1CCN(Cc2cccnc2)CC1)C(C)(C)C [Example 56, 2R-[(Formyl-hydroxy-amino)methyl]-hexanoic acid [2,2-dimethyl-1S-(4-pyridin-3-ylmethyl-piperazine-1-carbonyl)-propyl]-amide]",–,–,50,25,–
"CCCC[C@H](CN(O)C=O)C(=O)N[C@H](C(=O)N1CCN(C(=O)c2sc(C)nc2C)CC1)C(C)(C)C [Example 74, 2R-[(Formyl-hydroxy-amino)-methyl]-hexanoic acid {1S-[4-(2,4-dimethyl-thiazole-5-carbonyl)-piperazine-1-carbonyl]-2,2-dimethyl-propyl}-amide]",200,25,–,–,–
"CCCC[C@H](CN(O)C=O)C(=O)N[C@H](C(=O)N1CCN(S(=O)(=O)c2ccc(-c3ccccc3)cc2)CC1)C(C)(C)C [Example 78, 2R-[(Formyl-hydroxy-amino)-methyl]-hexanoic acid {1S-[4-(biphenyl-4-sulfonyl)-piperazine-1-carbonyl]-2,2-dimethyl-propyl}-amide]",–,200,–,–,–
